Experimental data from paper PMC11992225, “Antibacterial compounds against non-growing and intracellular bacteria” (npj Antimicrobials and Resistance, 2025).

Legend:
[1] = test system: non-growing S. aureus DSM2569; assay: Dose-dependent killing analysis (CFU spot-plating) of stationary-phase S. aureus;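 also: drug concentration in µM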; format: cell-based, Staphylococcus aureus; settings: S. aureus, vs 9,097 before treatment
Summary of the method: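 Survival was scored as CFU after overnight growth at 37 °C on LB agar, using spots from 10-fold PBS dilutions of treated cultures. Non-growing S. aureus DSM2569 had been exposed to compound for 24 h in 1:4 CA-MHB, pH 7.4. Three biological replicates were run.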

[2] = test system: intracellular S. flexneri 5a M90T in TC7 cells; assay: microbe, parasite or virus in culture; format: cell-based, Shigella flexneri
[3] = test system: non-growing P. aeruginosa DSM1117; assay: Dose-dependent killing analysis (CFU spot-plating) of stationary-phase P. aeruginosa; format: cell-based, Pseudomonas aeruginosa
Summary of the method: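 Viability by CFU: samples serially diluted 10-fold in PBS, spotted on LB agar, grown overnight at 37 °C, and colonies counted at the lowest resolvable dilution. Non-growing P. aeruginosa DSM1117 had been dosed for 24 h in 1:4 CA-MHB (pH 7.4); three biological replicates.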

NC1CCN(c2c(F)cc3c(=O)c(C(=O)O)cn(C4CC4)c3c2Cl)C1 (stereo not drawn) [Clinafloxacin]
average Δlog10(CFU/ml) (killing) ([1]; drug conc 0.1): 0.189 log10(CFU/ml)
average Δlog10(CFU/ml) (killing) ([1]; drug conc 0.5): 0.859 log10(CFU/ml)
average Δlog10(CFU/ml) (killing) ([1]; drug conc 2.5): 1.351 log10(CFU/ml)
average Δlog10(CFU/ml) (killing) ([1]; drug conc 10): 1.499 log10(CFU/ml)
IC50 ([2]; Shigella flexneri, TC7, 14 h): 10 nM
Fluorescence intensity (RFU), Mean, 0.25 x MIC ([2]; TC7 cells infected with GFP-expressing S. flexneri, 14 h treatment, 0.25 x MIC): 7691.46 RFU
Fluorescence intensity (RFU), Mean, 0.5 x MIC ([2]; TC7 cells infected with GFP-expressing S. flexneri, 14 h treatment, 0.5 x MIC): 5544.33 RFU
Fluorescence intensity (RFU), Mean, 2 x MIC ([2]; TC7 cells infected with GFP-expressing S. flexneri, 14 h treatment, 2 x MIC): 3160.53 RFU
Fluorescence intensity (RFU), Mean, 4 x MIC ([2]; TC7 cells infected with GFP-expressing S. flexneri, 14 h treatment, 4 x MIC): 3034.56 RFU
Fluorescence intensity (RFU), Mean, 8 x MIC ([2]; TC7 cells infected with GFP-expressing S. flexneri, 14 h treatment, 8 x MIC): 2732.08 RFU
Fluorescence intensity (RFU), Mean, 16 x MIC ([2]; TC7 cells infected with GFP-expressing S. flexneri, 14 h treatment, 16 x MIC): 2021.17 RFU
Fluorescence intensity (RFU), Mean, 32 x MIC ([2]; TC7 cells infected with GFP-expressing S. flexneri, 14 h treatment, 32 x MIC): 1621.75 RFU
Fluorescence intensity (RFU), Mean, MIC ([2]; TC7 cells infected with GFP-expressing S. flexneri, 14 h treatment, MIC): 4423.92 RFU
reduction of bacterial counts, stationary phase P. aeruginosa ([3]; at 0.5 µM, 24 h treatment): more than four
reduction of bacterial counts, non-growing P. aeruginosa ([3]; at 2.5 µM, 1:4 CA-MHB pH 7.4, 24 h treatment): more than four
